Source: patent publication US11753377B2, “Crystal form of 2-methyl-2-propanol and amino-substituted aryl compound” (ZHUHAI UNITED LABORATORIES CO., LTD., priority 2020, dated 2023)
pIC50: −log10 of the molar value. Where two headings read alike, the source gives them in different places.

Columns and labels:
CYP2C9 = target: T1, CYP2C9 (Homo sapiens, UniProt P11712); test: Inhibition of human liver microsomal cytochrome P450 CYP2C9; format: in vitro ADME; conditions: pooled human liver microsomes, probe substrate, NADPH
T1 construct: pooled human liver microsomes were selected as a CYP450 enzyme source; from tissue; host or cells: pooled human liver microsomes
T1 sequence (P11712 whole entry): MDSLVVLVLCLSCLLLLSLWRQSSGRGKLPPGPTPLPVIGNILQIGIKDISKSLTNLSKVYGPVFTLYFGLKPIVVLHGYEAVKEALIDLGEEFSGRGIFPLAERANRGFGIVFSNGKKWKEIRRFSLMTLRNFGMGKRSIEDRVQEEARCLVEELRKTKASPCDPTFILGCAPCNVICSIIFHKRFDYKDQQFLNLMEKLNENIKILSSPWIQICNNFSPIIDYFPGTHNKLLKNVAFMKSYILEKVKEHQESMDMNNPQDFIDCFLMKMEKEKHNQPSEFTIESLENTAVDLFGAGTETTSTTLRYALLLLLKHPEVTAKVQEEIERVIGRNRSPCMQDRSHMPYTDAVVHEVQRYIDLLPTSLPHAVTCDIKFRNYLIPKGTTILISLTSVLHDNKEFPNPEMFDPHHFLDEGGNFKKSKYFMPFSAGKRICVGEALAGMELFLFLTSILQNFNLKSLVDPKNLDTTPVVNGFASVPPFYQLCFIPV
From the text: (§1) Experimental objective: To study the inhibitory effect of compounds on human liver microsomal cytochrome P450. Experimental processes: In the study on inhibition of the compounds on the human liver microsomal cytochrome P450 (CYP1A2, CYP2C9, CYP2C19, CYP2D6 and CYP3A4), pooled human liver microsomes were selected as a CYP450 enzyme source.

[1] = Corneal to plasma drug concentration after eye drop administration in rats; format: in vivo; conditions: male, rat, topical, SD rats
Procedure: Experimental objective: To study the ratio of corneal to plasma drug concentration after eye drop administration in rats
Experimental material: Male SD rats, 200-300 g, 7-9 weeks old, Shanghai Lingchang
Experimental processes: The candidate compound was prepared as a clear solution, and administrating to SD rats by eye drop administration. The vehicle for eye drops was 10% hydroxypropyl β-cyclodextrin aqueous solution, and the drug concentration in the eye drops was 5 mg/mL. Corneal and whole blood samples were collected at 1 and 4 hours, respectively. Corneal was homogenized using 15 mM phosphate buffer (PBS): MeOH (2:1, v:v) buffer, then the whole blood samples were centrifuged at 3000 r for 10 min, and the supernatant plasma samples were separated. 20 μL of the plasma samples and homogenate samples were respectively mixed with 400 μL of acetonitrile solution containing internal standard to precipitate protein, and the mixture was centrifuged, then 2 μL of the supernatant was injected. The plasma concentrations were quantitatively analyzed by LC-MS/MS analysis method; the drug concentrations in the cornea and plasma were measured respectively according to different time points, and the ratio of corneal/plasma was calculated.

xerophthalmia in mice = test: In vivo efficacy: scopolamine-induced xerophthalmia in mice (tear test, corneal fluorescence staining score); set-up: species or system C57BL/6J mice; conditions: scopolamine model, 0.5% eye drops 3 μL/eye 4 times/day
From the text: Subcutaneous injection of scopolamine may induce the xerophthalmia in mice. Decreased tear secretion and inflammatory infiltration can be observed by tear tests and corneal fluorescence staining scores. Furthermore, it is possible to predict whether the model can reach the expected severity at the beginning of the modeling.
Experimental Design: • Twenty animals were selected from 25 female C57BL/6J mice and randomized into 4 groups by body weight via Provantis or Excel, […], and the grouping might also refer to the results of the tear test and the corneal fluorescence staining score of each animal prior to the experiment. • The mice were injected subcutaneously with scopolamine hydrobromide (3±0.5 h) for 4 times daily at 0.1 mL/animal/time on Day 1 to Day 12 of the experiment to establish xerophthalmia models in the mice. • On Day 1 to Day 13 of the experiment, animals were administrated by binocular eye drops for 4 times daily (3±0.5 h) at 3 μL/eye (on Day 13, animals in Group 1 were not administrated). […]
Tear tests and corneal fluorescence staining scores were performed on all experimental animals on Day 7 and Day 12 prior to modeling.
Criteria for corneal fluorescence staining scores: The cornea of an animal was divided into 5 regions, respectively being upper, lower, nasal, temporal and central regions, and each region was 0-3 points, and each region was scored. […]

CYP1A2 = target: T2, CYP1A2 (Homo sapiens, UniProt P05177); test: Inhibition of human liver microsomal cytochrome P450 CYP1A2; format: in vitro ADME; conditions: pooled human liver microsomes, probe substrate, NADPH
T2 construct: pooled human liver microsomes were selected as a CYP450 enzyme source; from tissue; host or cells: pooled human liver microsomes
T2 sequence (P05177 1-516): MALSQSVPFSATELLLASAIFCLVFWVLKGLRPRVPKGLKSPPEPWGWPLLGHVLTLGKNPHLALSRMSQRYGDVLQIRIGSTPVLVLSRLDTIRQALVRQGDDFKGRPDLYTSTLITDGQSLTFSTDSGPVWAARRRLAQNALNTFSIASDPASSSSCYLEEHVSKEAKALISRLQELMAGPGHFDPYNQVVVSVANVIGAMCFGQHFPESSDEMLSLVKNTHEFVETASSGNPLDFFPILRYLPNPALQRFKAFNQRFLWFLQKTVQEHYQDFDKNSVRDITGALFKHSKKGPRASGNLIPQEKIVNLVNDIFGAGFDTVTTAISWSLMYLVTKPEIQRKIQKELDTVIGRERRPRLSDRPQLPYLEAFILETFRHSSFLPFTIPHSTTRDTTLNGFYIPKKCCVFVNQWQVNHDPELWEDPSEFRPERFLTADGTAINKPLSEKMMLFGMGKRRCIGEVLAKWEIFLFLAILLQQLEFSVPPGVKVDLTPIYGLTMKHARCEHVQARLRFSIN
From the text: as §1

CYP2C19 = target: T3, CYP2C19 (Homo sapiens, UniProt P33261); test: Inhibition of human liver microsomal cytochrome P450 CYP2C19; format: in vitro ADME; conditions: pooled human liver microsomes, probe substrate, NADPH
T3 construct: pooled human liver microsomes were selected as a CYP450 enzyme source; from tissue; host or cells: pooled human liver microsomes
T3 sequence (P33261 whole entry): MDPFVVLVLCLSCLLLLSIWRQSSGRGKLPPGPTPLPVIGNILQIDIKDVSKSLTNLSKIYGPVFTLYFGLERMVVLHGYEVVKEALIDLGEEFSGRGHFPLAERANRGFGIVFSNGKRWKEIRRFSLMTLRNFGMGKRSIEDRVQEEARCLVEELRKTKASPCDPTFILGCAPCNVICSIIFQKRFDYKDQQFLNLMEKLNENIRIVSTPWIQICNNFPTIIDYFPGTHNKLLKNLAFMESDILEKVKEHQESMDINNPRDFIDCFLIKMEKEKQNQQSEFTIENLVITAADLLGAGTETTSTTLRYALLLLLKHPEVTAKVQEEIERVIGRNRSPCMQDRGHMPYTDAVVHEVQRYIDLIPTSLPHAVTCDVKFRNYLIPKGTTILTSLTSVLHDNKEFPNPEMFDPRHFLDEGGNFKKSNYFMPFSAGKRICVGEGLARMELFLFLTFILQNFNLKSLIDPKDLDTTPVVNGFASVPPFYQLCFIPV
From the text: as §1

[2] = Pharmacokinetics in cynomolgus monkeys, single intravenous injection; format: in vivo; conditions: male, cynomolgus monkey, plasma, 1 mg/kg single intravenous injection
Procedure: Experimental objective: To study pharmacokinetics of the compound in cynomolgus monkeys
Experimental material: Cynomolgus monkeys (male, 2.5-4 kg, greater than or equal to 2 years, Hainan Jingang)
(§2) Pharmacokinetic characteristics of the compound were tested by intravenous injection in monkeys according to the standard protocol. In the experiment, the candidate compound was prepared as a clear solution, and was administrating to cynomolgus monkeys at 1 mg/kg by single intravenous injection. A vehicle for intravenous injection was a 10% hydroxypropyl β-cyclodextrin aqueous solution. Whole blood samples were collected at 0.033, 0.083, 0.25, 0.5, 1, 2, 4, 8, 12, and 24 hours, centrifuged at 3000 r for 10 min, and the supernatant was separated to obtain plasma samples. 20 μL of plasma samples were mixed with 400 μL of acetonitrile solution containing internal standard to precipitate protein, and the mixture was centrifuged, then 2 μL of the supernatant was injected. Plasma concentrations were quantitatively analyzed by LC-MS/MS analysis method, and pharmacokinetic parameters, such as clearance rate, half-life, and area under the concentration-time curve, were calculated.

[3] = Pharmacokinetics in Beagle dogs, single intravenous injection; format: in vivo; conditions: male, dog, plasma, 1 mg/kg single intravenous injection
Procedure: Experimental objective: To study pharmacokinetics of the compound in Beagle dogs
Experimental material: Beagle dogs (male, 8-11 kg, greater than or equal to 6 months, Marshall)
as §2, with “rodents” for “monkeys”, “Beagle dogs” for “cynomolgus monkeys”, “hours, respectively,” for “hours,”

CYP3A4 = target: T4, CYP3A4 (Homo sapiens, UniProt P08684); test: Inhibition of human liver microsomal cytochrome P450 CYP3A4; format: in vitro ADME; conditions: pooled human liver microsomes, two probe substrates, NADPH
T4 construct: pooled human liver microsomes were selected as a CYP450 enzyme source; from tissue; host or cells: pooled human liver microsomes
T4 sequence (P08684 whole entry): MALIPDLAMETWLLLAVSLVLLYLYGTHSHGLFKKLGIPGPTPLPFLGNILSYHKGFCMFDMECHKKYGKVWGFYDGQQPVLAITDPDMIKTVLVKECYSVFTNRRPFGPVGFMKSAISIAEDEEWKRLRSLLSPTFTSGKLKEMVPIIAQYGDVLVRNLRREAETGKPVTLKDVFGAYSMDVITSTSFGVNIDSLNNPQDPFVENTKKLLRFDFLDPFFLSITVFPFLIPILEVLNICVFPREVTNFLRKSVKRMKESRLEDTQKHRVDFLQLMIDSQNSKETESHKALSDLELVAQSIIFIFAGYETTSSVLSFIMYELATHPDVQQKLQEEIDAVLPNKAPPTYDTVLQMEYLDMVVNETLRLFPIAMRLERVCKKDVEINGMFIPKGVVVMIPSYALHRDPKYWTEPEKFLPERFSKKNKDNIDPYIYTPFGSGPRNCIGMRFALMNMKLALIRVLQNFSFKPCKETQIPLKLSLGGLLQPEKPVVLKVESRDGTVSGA
From the text: as §1

CYP2D6 = target: T5, CYP2D6 (Homo sapiens, UniProt P10635); test: Inhibition of human liver microsomal cytochrome P450 CYP2D6; format: in vitro ADME; conditions: pooled human liver microsomes, probe substrate, NADPH
T5 construct: pooled human liver microsomes were selected as a CYP450 enzyme source; from tissue; host or cells: pooled human liver microsomes
T5 sequence (P10635 whole entry): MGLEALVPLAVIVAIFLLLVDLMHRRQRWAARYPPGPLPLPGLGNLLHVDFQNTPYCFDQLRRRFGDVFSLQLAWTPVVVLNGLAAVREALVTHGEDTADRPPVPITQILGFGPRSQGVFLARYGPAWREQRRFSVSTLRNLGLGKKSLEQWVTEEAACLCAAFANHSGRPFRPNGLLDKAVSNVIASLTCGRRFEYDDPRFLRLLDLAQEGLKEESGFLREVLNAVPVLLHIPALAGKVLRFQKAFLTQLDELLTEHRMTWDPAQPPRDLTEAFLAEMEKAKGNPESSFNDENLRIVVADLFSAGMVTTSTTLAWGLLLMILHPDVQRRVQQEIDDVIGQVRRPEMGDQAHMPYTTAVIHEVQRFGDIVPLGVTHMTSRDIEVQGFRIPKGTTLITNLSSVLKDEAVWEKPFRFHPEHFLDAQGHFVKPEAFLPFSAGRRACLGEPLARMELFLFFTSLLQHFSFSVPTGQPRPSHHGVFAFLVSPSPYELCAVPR
From the text: as §1

[4] = In vitro aldehyde capture capacity experiment (complexation with nonanal, HPLC at 254 nm)
From the text: Experimental Embodiment 1: In Vitro Aldehyde Capture Capacity Experiment
1. Experiment Objectives and Processes
Objectives: Xerophthalmia is caused by inflammation inside the eyes, wherein the inflammation may produce aldehydes in the body that will accelerate the inflammation symptoms and worsen the xerophthalmia if not eliminated in time. In the experiment, a relatively good compound was selected according to the complexing capacity of the drug and aldehydes in vivo by simulating the in vivo environment.
Processes: Sulfobutyl-B-cyclodextrin (310 mg) was dissolved in a phosphate buffer (1.25 mL) to prepare a solution.
Nonanal (5.0 mg, 32 μmol, 1.0 eq) and triolein (300 mg) were added to a reaction flask at room temperature, after the prepared solution described above was added thereto, linoleic acid (300 mg) was added thereto, and finally a dimethyl sulfoxide (0.15 mL) solution containing the compound (32 μmol, 1.0 eq) of the present disclosure was added thereto; the reaction solution was reacted at 20-23° C.
The reaction solution was reacted under stirring for 10 min, 100 min, 200 min, and 300 min respectively, and sampled for high performance liquid chromatography after the solution was stratified after standing for 2 min.
Sampling method: 25 μL of an upper emulsified layer and 50 μL of a lower aqueous layer were sampled by a pipette, and samples were diluted with 1 mL of methanol.
Therefore, the percentage contents of complexes at 254 nm under high performance liquid chromatography were compared to observe the ability of compounds to capture and complex aldehydes, as shown in FIG. 4 and Table 6:
The HPLC analysis method is detailed in Table 7, which is XBRIGE 2.5 μm, 3.0*100 mm 5-80CD_XBEH_12 min_0.8.lcm
After 300 min of reaction, retention times of 6.689 min, 6.787 min, 6.966 min, and 7.102 min were absorption peaks of products complexed with monomolecular aldehyde; retention times of 8.905 min, 9.010 min, and 9.075 min were absorption peaks of products complexed with bimolecular aldehyde.

[5] = read-out: Area under the concentration-time curve AUC
[6] = read-out: Half-life T1/2 (converted)

pIC50 (CYP2C9): < 4.30
concentration at 1 h ([1]; cornea, eye drops 5 mg/mL, 1 h, read-out: Corneal concentration): 2450 nM
concentration at 4 h ([1]; cornea, eye drops 5 mg/mL, 4 h, read-out: Corneal concentration): 330 nM
Kp ([1]; cornea/plasma, 5 mg/mL, eye drop administration, read-out: Ratio of cornea/plasma): > 10
Kp at 1 h ([1]; cornea/plasma, eye drops 5 mg/mL, 1 h, read-out: Corneal concentration/plasma concentration C/P ratio): 11.8
Kp at 4 h ([1]; cornea/plasma, eye drops 5 mg/mL, 4 h, read-out: Corneal concentration/plasma concentration C/P ratio): 12.4
concentration at 1 h ([1]; plasma, eye drops 5 mg/mL, 1 h, read-out: Plasma concentration): 172 nM
concentration at 4 h ([1]; plasma, eye drops 5 mg/mL, 4 h, read-out: Plasma concentration): 24.4 nM
pIC50 (CYP1A2): < 4.30
pIC50 (CYP2C19): < 4.30
AUC [2, 5]: 13 µM·h
clearance ([2]; read-out: Clearance rate): 4.6 mL/min/kg
half-life [2, 6]: 3.91 h
AUC [3, 5]: 4.67 µM·h
clearance ([3]; read-out: Clearance rate): 11.3 mL/min/kg
half-life [3, 6]: 2.94 h
pIC50 (CYP3A4): < 4.30
pIC50 (CYP2D6): < 4.30
SMILES: CC(C)(O)c1cc(F)c(-c2cnc(C(C)(C)O)c(N)c2)cc1N [Compound represented by formula (I)]
Tear secretion (xerophthalmia in mice; FIG. 5): improve
Corneal inflammation (corneal fluorescence staining) (xerophthalmia in mice; FIG. 6): improve
Ability and speed of complexing aldehydes [4]: very significant
Percentage content of complexes at 254 nm ([4]; Time 10 min): 6.634%
Percentage content of complexes at 254 nm ([4]; Time 100 min): 20.013%
Percentage content of complexes at 254 nm ([4]; Time 200 min): 29.424%
Percentage content of complexes at 254 nm ([4]; Time 300 min): 36.039%
Area under the curve AUC ([4]; percentage content of complexes at 254 nm versus time, 10-300 min): 6944 min.conversion
Slope ([4]; slope of linear equation, percentage content of complexes at 254 nm versus time 10-300 min, nonanal 1.0 eq, 20-23° C.): 0.1002
